Reference: patent publication US20070248694A1, “Anti-inflammatory properties of a standardized extract from Euphorbia hirta (PM-251) activity and for treating conditions of inflammation” (PhytoMyco Research Corporation, priority 2006, published 2007)

Key:
Assay type in all cases: in vivo, Wister strain - Albino rats
[1] = tested on: Turpentine induced arthritis; experiment: Turpentine induced arthritis; conditions: 100 mg/kbw oral single dose
Protocol: Dose Levels • Control: One ml of 1% gum acacia • Standard: 100 mg/kbw (kilogram body weight) in acute models and sub-acute models. • T1:100 mg/kbw and T2:200 mg/kbw in Carrageenin and Turpentine models and T1: […] All drugs (dose) were given only once a day. 2. Method of performance study • Main assays: The test article, the standard and control were administered: a. Carrageenin induced rat paw edema: The respective drug was administered in single dose through mouth 1 hour before the administration of phlogistic agent. The method used comprises of the study of the acute inflammatory reaction induced by injecting the phlogistic agent carrageenin into the subplantar surface of the right hindpaw of the rat. […] Lesser the mean paw volume more was the anti-inflammatory potential and vice versa. • b. Turpentine induced arthritis: The respective drug was administered in single dose through mouth 1 hour before the administration of phlogistic agent. This is one of the commonly employed models to induce arthritis in the rat; 0.01 ml turpentine was injected to the right knee joint. The maximum diameter of the right knee joint was measured at ‘0’ hour and at the end of ‘4’ hours after the injection with the help of screw gauge and the difference between ‘0’ hour and ‘4’ hour reading gave the actual arthritis. Lesser the mean diameter right knee joint more the anti-inflammatory potential and vice versa. • c. Formalin induced experimental peritonitis: The respective drug was administered in single dose through mouth 1 hour before the administration of phlogistic agent by injecting 1 ml of 1% formalin in to the peritoneal cavity. […] Lesser the mean exudates more is the anti-inflammatory potential and vice versa. • d. Cotton wool pellet induced granuloma: The respective drug was administered by mouth in single dose one hour prior to the cotton pellet implantation on the first day and subsequently every day for next five days. The extent of formation of foreign body granuloma (granulation tissue) is the main criterion for evaluating anti-inflammatory activity. […]

[2] = tested on: Carrageenin induced rat paw edema; experiment: Carrageenin induced rat paw edema; conditions: 100 mg/kbw oral single dose
Protocol: Dose Levels • Control: One ml of 1% gum acacia • Standard: 100 mg/kbw (kilogram body weight) in acute models and sub-acute models. • T1:100 mg/kbw and T2:200 mg/kbw in Carrageenin and Turpentine models and T1: […] All drugs (dose) were given only once a day. 2. Method of performance study • Main assays: The test article, the standard and control were administered: a. Carrageenin induced rat paw edema: The respective drug was administered in single dose through mouth 1 hour before the administration of phlogistic agent. The method used comprises of the study of the acute inflammatory reaction induced by injecting the phlogistic agent carrageenin into the subplantar surface of the right hindpaw of the rat. […] Lesser the mean paw volume more was the anti-inflammatory potential and vice versa. • b. Turpentine induced arthritis: The respective drug was administered in single dose through mouth 1 hour before the administration of phlogistic agent. This is one of the commonly employed models to induce arthritis in the rat; 0.01 ml turpentine was injected to the right knee joint. The maximum diameter of the right knee joint was measured at ‘0’ hour and at the end of ‘4’ hours after the injection with the help of screw gauge and the difference between ‘0’ hour and ‘4’ hour reading gave the actual arthritis. […]

[3] = tested on: Cotton pellet induced granuloma; experiment: Cotton wool pellet induced granuloma; conditions: 100 mg/kbw oral once daily
Protocol: (§1) Dose Levels • Control: One ml of 1% gum acacia • Standard: 100 mg/kbw (kilogram body weight) in acute models and sub-acute models. • T1:100 mg/kbw and T2:200 mg/kbw in Carrageenin and Turpentine models and T1: 200 mg/kbw and T2:400 mg/kbw in Cotton pellet granuloma and Formalin induced arthritis model. […] All drugs (dose) were given only once a day. 2. Method of performance study • Main assays: The test article, the standard and control were administered: a. Carrageenin induced rat paw edema: The respective drug was administered in single dose through mouth 1 hour before the administration of phlogistic agent. The method used comprises of the study of the acute inflammatory reaction induced by injecting the phlogistic agent carrageenin into the subplantar surface of the right hindpaw of the rat. […] Lesser the mean paw volume more was the anti-inflammatory potential and vice versa. • b. Turpentine induced arthritis: The respective drug was administered in single dose through mouth 1 hour before the administration of phlogistic agent. […] The maximum diameter of the right knee joint was measured at ‘0’ hour and at the end of ‘4’ hours after the injection with the help of screw gauge and the difference between ‘0’ hour and ‘4’ hour reading gave the actual arthritis. […]

[4] = tested on: Formalin induced peritonitis; experiment: Formalin induced experimental peritonitis; conditions: 100 mg/kbw oral single dose
Protocol: as §1

## COc1ccc2c(c1)c(CC(=O)O)c(C)n2C(=O)c1ccc(Cl)cc1 [Indomethacin]
[1]
  % inhibition with respect to control: 84.95%
  Inhibitory Potency Values: 0.85
[1]; right knee joint diameter, difference 0 h to 4 h
  Mean volume (in mm.) (±) SEM: 1.55 ± 0.19 mm
[2]
  Inhibitory Potency Values: 3.98
[2]; paw edema volume, difference 0 h to 4 h
  Mean volume (in ml.) (±) SEM: 0.88 ± 0.52 mL
[3]
  Inhibitory Potency Values: 2.38
[3]; granulation tissue weight on dried cotton pellet, sixth day
  Mean volume (in mg.) (±): 6.54 ± 0.36 mg
[4]
  Inhibitory Potency Values: 1.38
[4]; peritoneal exudate volume after 4 hours
  Mean volume (in ml.) (±) SEM: 0.57 ± 0.14 mL
